# Assay results from ChEMBL document CHEMBL1201862, “PubChem BioAssay data set” (2004).
# Calls of active or inactive are those of the source. Rule as the data show it: active = IC50 of 10 µM or less and inactive = more.
# How the values were obtained:
# [1] = target: Melanin-concentrating hormone receptor 1 (Homo sapiens, UniProt Q99705); experiment: Late-stage fluorescence-based counterscreen for antagonists of the G-protein coupled receptor 7 (GPR7): cell-based dose response assay to identify antagonists of the melanin-concentrating hormone receptor 1 (MCHR1) Set 6.; type: functional
# [2] = target: T1, Neuropeptides B/W receptor type 1 (Homo sapiens, UniProt P48145); experiment: human NPBW1 receptor blockade, IC50 – cell-based, fluorescence, dose response, set 6, late-stage follow-up (AID 588583); type: functional
# T1 sequence (P48145 whole entry): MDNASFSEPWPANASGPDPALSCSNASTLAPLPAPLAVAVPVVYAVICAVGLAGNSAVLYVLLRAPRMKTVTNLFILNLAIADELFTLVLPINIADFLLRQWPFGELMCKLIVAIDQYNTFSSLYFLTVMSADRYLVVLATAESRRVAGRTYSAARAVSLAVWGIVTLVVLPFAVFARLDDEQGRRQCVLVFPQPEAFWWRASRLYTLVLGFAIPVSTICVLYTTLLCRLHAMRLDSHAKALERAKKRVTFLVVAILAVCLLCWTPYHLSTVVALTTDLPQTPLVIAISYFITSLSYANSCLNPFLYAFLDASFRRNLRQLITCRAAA
# Sequence of Melanin-concentrating hormone receptor 1 (Q99705 whole entry): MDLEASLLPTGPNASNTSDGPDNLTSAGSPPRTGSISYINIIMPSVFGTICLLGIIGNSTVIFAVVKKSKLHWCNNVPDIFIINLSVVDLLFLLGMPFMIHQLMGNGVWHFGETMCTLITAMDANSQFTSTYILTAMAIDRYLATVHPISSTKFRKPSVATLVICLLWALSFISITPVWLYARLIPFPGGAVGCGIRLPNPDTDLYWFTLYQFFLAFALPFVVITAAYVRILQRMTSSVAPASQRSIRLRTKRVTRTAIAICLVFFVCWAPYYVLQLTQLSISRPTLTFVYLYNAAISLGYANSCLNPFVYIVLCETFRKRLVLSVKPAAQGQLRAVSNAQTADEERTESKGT
smiles,measurement,setting,value
N#CC(c1ccccc1)c1c(S)cnn(Cc2cccc3ccccc23)c1=O (configuration not stated),IC50,[1],> 20 µM (inactive)
same,IC50,[2],> 20 µM (inactive)
